Laboratory results published in patent US20030176314A1, “Compounds for the treatment of pain” (priority 2001, published 2003).
Structures can show the parent of a compound that is named as a salt.

Biological target: T1, rat NPFF2 receptor (Rattus norvegicus, UniProt Q9EQD2)
T1 construct: The full-length NPFF2 was amplified from rat spinal cord cDNA; expressed in transfected cells; host or cells: not given
Assay: Functional assay (agonist potency, intrinsic activity) at cloned rat NPFF2 receptor
Format: cell-based
Conditions: Table 7, intrinsic activity

T1 sequence (Q9EQD2 whole entry): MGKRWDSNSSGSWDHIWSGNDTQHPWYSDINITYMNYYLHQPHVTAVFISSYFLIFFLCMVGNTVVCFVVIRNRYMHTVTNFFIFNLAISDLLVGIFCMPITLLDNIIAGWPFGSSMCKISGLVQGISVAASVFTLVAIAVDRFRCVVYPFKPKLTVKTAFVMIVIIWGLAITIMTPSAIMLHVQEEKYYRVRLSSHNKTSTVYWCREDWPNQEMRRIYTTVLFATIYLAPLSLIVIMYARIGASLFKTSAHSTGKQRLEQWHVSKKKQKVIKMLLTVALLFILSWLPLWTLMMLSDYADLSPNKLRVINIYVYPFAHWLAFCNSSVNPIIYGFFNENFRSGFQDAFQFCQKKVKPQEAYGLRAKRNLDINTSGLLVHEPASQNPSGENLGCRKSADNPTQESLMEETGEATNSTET

Structure (SMILES)	rNPFF2 IA
Cc1nc(NC(=N)N)nc2cc(C(C)(C)C)ccc12 [Compound 1022A, N-[7-(tert-butyl)-4-methyl-2-quinazolinyl]guanidine]	81% NPFF
Cc1nc(NC(=N)N)nc2cc3c(cc12)CCC3 [Compound 1038A, N-(4-methyl-7,8-dihydro-6H-cyclopenta[g]quinazolin-2-yl)guanidine]	74% NPFF

System: not given
Assay: not given
Conditions: not given

Structure (SMILES)	melting point
Cc1nc(NC(=N)N)nc2cc(OCc3ccccc3)ccc12 (as salt: salt) [Compound 1006A, N-[7-(benzyloxy)-4-methyl-2-quinazolinyl]guanidine]	215 to 217 °C (dec.)
Cc1cc2nc(NC(=N)N)nc(C)c2cc1O (as salt: salt) [Compound 1017A, N-(6-hydroxy-4,7-dimethyl-2-quinazolinyl)guanidine]	246 to 248 °C (dec.)
Cc1nc(NC(=N)N)nc2cc(C(C)(C)C)ccc12 [Compound 1022A, N-[7-(tert-butyl)-4-methyl-2-quinazolinyl]guanidine]	195 to 198 °C (dec.)
Cc1nc(NC(=N)N)nc2cc3c(cc12)CCC3 [Compound 1038A, N-(4-methyl-7,8-dihydro-6H-cyclopenta[g]quinazolin-2-yl)guanidine]	295 to 298 °C (dec.)

System: distension induced contractions of the rat bladder
Assay: not given
Conditions: drugs used therapeutically in humans, from publications; cited from earlier work

Structure (SMILES)	activity in the DIRC model
NCC(CC(=O)O)c1ccc(Cl)cc1 (stereo not drawn) [baclofen]	active
CN(C)CCCN1c2ccccc2CCc2ccccc21 [imipramine]	active
CNCCC=C1c2ccccc2CCc2ccccc21 [nortriptyline]	active
CCN(CC)CC#CCOC(=O)C(O)(c1ccccc1)C1CCCCC1 (stereo not drawn) [oxybutynin]	active
CC(CC(c1ccccc1)c1ccccc1)NC(C)(C)C (stereo not drawn) [terodiline]	active

Biological target: T2, rat NPFF1 receptor (Rattus norvegicus, UniProt Q9EP86)
T2 construct: expressed in transfected cells; host or cells: not given
Assay: Functional assay (agonist potency, intrinsic activity) at cloned rat NPFF1 receptor
Format: cell-based
Conditions: Table 7, intrinsic activity

T2 sequence (Q9EP86 whole entry): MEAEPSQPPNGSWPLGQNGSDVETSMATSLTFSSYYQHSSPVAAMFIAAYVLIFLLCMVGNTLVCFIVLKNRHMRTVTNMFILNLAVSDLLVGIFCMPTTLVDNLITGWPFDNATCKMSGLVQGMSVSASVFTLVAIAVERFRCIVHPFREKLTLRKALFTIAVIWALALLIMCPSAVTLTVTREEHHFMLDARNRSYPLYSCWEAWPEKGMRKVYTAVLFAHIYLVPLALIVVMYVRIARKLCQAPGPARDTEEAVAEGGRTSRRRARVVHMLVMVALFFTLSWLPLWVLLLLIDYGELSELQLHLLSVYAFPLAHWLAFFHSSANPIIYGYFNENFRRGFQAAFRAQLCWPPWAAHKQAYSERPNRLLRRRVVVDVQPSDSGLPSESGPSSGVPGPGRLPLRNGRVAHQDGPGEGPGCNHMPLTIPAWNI

Structure (SMILES)	rNPFF1 IA
Cc1nc(NC(=N)N)nc2cc(C(C)(C)C)ccc12 [Compound 1022A, N-[7-(tert-butyl)-4-methyl-2-quinazolinyl]guanidine]	19% NPFF
